Test results published in ChEMBL document CHEMBL1201862, “PubChem BioAssay data set” (2004).
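Briefly, cells in 96-well plates were exposed to five compound concentrations for 48 h, and endpoints were estimated by linear interpolation. Here, GI50 denotes the concentration required for 50% inhibition of growth.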 The source made the active and inactive calls. Rule as the data show it: active = GI50 up to about 1.1 µM and inactive = higher.

Columns and labels:
Assay in all cases: NCI anticancer screen, dose series, 48 h
[1] = tested on: 786-0
[2] = tested on: A498
[3] = tested on: A549
[4] = tested on: ACHN
[5] = tested on: BT-549
[6] = tested on: CAKI-1
[7] = tested on: CCRF-CEM
[8] = tested on: COLO 205
[9] = tested on: DU-145
[10] = tested on: EKVX
[11] = tested on: HCC 2998
[12] = tested on: HCT-116
[13] = tested on: HCT-15
[14] = tested on: HOP-62
[15] = tested on: HOP-92
[16] = tested on: HT-29
[17] = tested on: Hs-578T
[18] = tested on: IGROV-1
[19] = tested on: K562
[20] = tested on: KM12
[21] = tested on: LOX IMVI
[22] = tested on: M14
[23] = tested on: MCF7
[24] = tested on: MDA-MB-231
[25] = tested on: MDA-MB-435
[26] = tested on: MDA-N
[27] = tested on: MOLT-4
[28] = tested on: Malme-3M
[29] = tested on: NCI-H226
[30] = tested on: NCI-H23
[31] = tested on: NCI-H460
[32] = tested on: NCI/ADR-RES
[33] = tested on: OVCAR-3
[34] = tested on: OVCAR-4
[35] = tested on: OVCAR-5
[36] = tested on: OVCAR-8
[37] = tested on: PC-3
[38] = tested on: SF-268
[39] = tested on: SF-295
[40] = tested on: SF-539
[41] = tested on: SK-MEL-28
[42] = tested on: SK-MEL-5
[43] = tested on: SK-OV-3
[44] = tested on: SN12C
[45] = tested on: SNB-19
[46] = tested on: SNB-75
[47] = tested on: SW-620
[48] = tested on: T47D
[49] = tested on: TK-10
[50] = tested on: U-251
[51] = tested on: UACC-257
[52] = tested on: UACC-62
[53] = tested on: UO-31
[54] = tested on: HL-60
[55] = tested on: NCI-H522
[56] = tested on: RPMI-8226
[57] = tested on: RXF 393
[58] = tested on: SK-MEL-2
[59] = tested on: SR

CCOP(=O)(OCC)C(F)(F)c1ccc(CC(NC(=O)OC(C)(C)C)C(=O)O)cc1 (stereo not drawn)
GI50 [1]: > 10 µM (inactive) | GI50 [2]: > 10 µM (inactive) | GI50 [3]: > 10 µM (inactive) | GI50 [4]: > 10 µM (inactive) | GI50 [5]: > 10 µM (inactive) | GI50 [6]: > 10 µM (inactive) | GI50 [7]: > 10 µM (inactive) | GI50 [8]: > 10 µM (inactive) | GI50 [9]: > 10 µM (inactive) | GI50 [10]: > 10 µM (inactive) | GI50 [11]: > 10 µM (inactive) | GI50 [12]: > 10 µM (inactive) | GI50 [13]: > 10 µM | GI50 [14]: 5.15 µM (inactive) | GI50 [15]: > 10 µM (inactive) | GI50 [16]: > 10 µM (inactive) | GI50 [17]: > 10 µM (inactive) | GI50 [18]: > 10 µM (inactive) | GI50 [19]: > 10 µM (inactive) | GI50 [20]: > 10 µM (inactive) | GI50 [21]: > 10 µM (inactive) | GI50 [22]: > 10 µM (inactive) | GI50 [23]: > 10 µM (inactive) | GI50 [24]: > 10 µM (inactive) | GI50 [25]: > 10 µM (inactive) | GI50 [26]: > 10 µM (inactive) | GI50 [27]: > 10 µM (inactive) | GI50 [28]: > 10 µM (inactive) | GI50 [29]: > 10 µM (inactive) | GI50 [30]: > 10 µM (inactive) | GI50 [31]: > 10 µM (inactive) | GI50 [32]: > 10 µM (inactive) | GI50 [33]: > 10 µM (inactive) | GI50 [34]: > 10 µM (inactive) | GI50 [35]: > 10 µM (inactive) | GI50 [36]: > 10 µM (inactive) | GI50 [37]: > 10 µM (inactive) | GI50 [38]: > 10 µM (inactive) | GI50 [39]: > 10 µM (inactive) | GI50 [40]: > 10 µM (inactive) | GI50 [41]: > 10 µM (inactive) | GI50 [42]: > 10 µM (inactive) | GI50 [43]: > 10 µM (inactive) | GI50 [44]: > 10 µM (inactive) | GI50 [45]: > 10 µM (inactive) | GI50 [46]: > 10 µM (inactive) | GI50 [47]: > 10 µM (inactive) | GI50 [48]: > 10 µM (inactive) | GI50 [49]: > 10 µM (inactive) | GI50 [50]: > 10 µM (inactive) | GI50 [51]: > 10 µM (inactive) | GI50 [52]: > 10 µM (inactive) | GI50 [53]: > 10 µM (inactive)

COC(=O)C1=C2Nc3ccccc3C23CCN2C(O)C4(CC5CC67CCOC6CCN6CCC8(c9cccc(OC)c9N(C4)C58O)C67)C4OCCC4(C1)C23 (stereo not drawn)
GI50 [1]: 24.3 µM (inactive) | GI50 [2]: 64.3 µM (inactive) | GI50 [3]: > 100 µM (inactive) | GI50 [4]: 86.5 µM (inactive) | GI50 [5]: > 100 µM (inactive) | GI50 [6]: 25.2 µM (inactive) | GI50 [7]: > 100 µM (inactive) | GI50 [8]: > 100 µM (inactive) | GI50 [9]: 36.3 µM (inactive) | GI50 [10]: 52.8 µM (inactive) | GI50 [11]: > 100 µM (inactive) | GI50 [12]: 34.5 µM (inactive) | GI50 [13]: > 100 µM | GI50 [54]: > 100 µM (inactive) | GI50 [14]: 44.2 µM (inactive) | GI50 [15]: 27.2 µM (inactive) | GI50 [16]: > 100 µM (inactive) | GI50 [17]: 22.5 µM (inactive) | GI50 [18]: 87.7 µM (inactive) | GI50 [19]: > 100 µM (inactive) | GI50 [20]: 78.9 µM (inactive) | GI50 [21]: 95.5 µM (inactive) | GI50 [22]: 71.9 µM (inactive) | GI50 [23]: 47.2 µM (inactive) | GI50 [24]: 15.6 µM (inactive) | GI50 [25]: 58.7 µM (inactive) | GI50 [26]: 98.2 µM (inactive) | GI50 [28]: 56.4 µM (inactive) | GI50 [29]: 87.9 µM (inactive) | GI50 [30]: > 100 µM (inactive) | GI50 [31]: 76.7 µM (inactive) | GI50 [55]: 36.4 µM (inactive) | GI50 [33]: > 100 µM (inactive) | GI50 [34]: 61.9 µM (inactive) | GI50 [35]: > 100 µM (inactive) | GI50 [36]: 23.5 µM (inactive) | GI50 [37]: 34.8 µM (inactive) | GI50 [56]: > 100 µM (inactive) | GI50 [57]: 49.7 µM (inactive) | GI50 [38]: 26.1 µM (inactive) | GI50 [39]: 34.6 µM (inactive) | GI50 [40]: > 100 µM (inactive) | GI50 [41]: 97.5 µM (inactive) | GI50 [58]: 84.1 µM (inactive) | GI50 [42]: 49.5 µM (inactive) | GI50 [43]: 68.5 µM (inactive) | GI50 [44]: 79.8 µM (inactive) | GI50 [45]: 45.7 µM (inactive) | GI50 [46]: 23.5 µM (inactive) | GI50 [59]: 14.7 µM (inactive) | GI50 [47]: 62.4 µM (inactive) | GI50 [48]: 20.3 µM (inactive) | GI50 [49]: > 100 µM (inactive) | GI50 [50]: 35.6 µM (inactive) | GI50 [51]: > 100 µM (inactive) | GI50 [52]: > 100 µM (inactive) | GI50 [53]: > 100 µM (inactive)

O=C(O)c1c[nH]c2c(Sc3ccccc3)nccc2c1=O
GI50 [1]: > 100 µM (inactive) | GI50 [2]: > 100 µM (inactive) | GI50 [3]: > 100 µM (inactive) | GI50 [4]: > 100 µM (inactive) | GI50 [5]: 33 µM (inactive) | GI50 [6]: > 100 µM (inactive) | GI50 [7]: 47 µM (inactive) | GI50 [8]: > 100 µM (inactive) | GI50 [9]: > 100 µM (inactive) | GI50 [10]: 70.3 µM (inactive) | GI50 [12]: > 100 µM (inactive) | GI50 [13]: > 100 µM | GI50 [54]: 78.7 µM (inactive) | GI50 [14]: > 100 µM (inactive) | GI50 [15]: > 100 µM (inactive) | GI50 [16]: > 100 µM (inactive) | GI50 [17]: > 100 µM (inactive) | GI50 [18]: > 100 µM (inactive) | GI50 [20]: 39.9 µM (inactive) | GI50 [21]: 44.2 µM (inactive) | GI50 [22]: > 100 µM (inactive) | GI50 [23]: > 100 µM (inactive) | GI50 [24]: > 100 µM (inactive) | GI50 [25]: > 100 µM (inactive) | GI50 [26]: > 100 µM (inactive) | GI50 [27]: > 100 µM (inactive) | GI50 [29]: > 100 µM (inactive) | GI50 [30]: > 100 µM (inactive) | GI50 [31]: > 100 µM (inactive) | GI50 [55]: 76.7 µM (inactive) | GI50 [32]: > 100 µM (inactive) | GI50 [33]: > 100 µM (inactive) | GI50 [34]: > 100 µM (inactive) | GI50 [35]: > 100 µM (inactive) | GI50 [36]: > 100 µM (inactive) | GI50 [37]: > 100 µM (inactive) | GI50 [38]: > 100 µM (inactive) | GI50 [39]: > 100 µM (inactive) | GI50 [40]: > 100 µM (inactive) | GI50 [41]: > 100 µM (inactive) | GI50 [58]: > 100 µM (inactive) | GI50 [42]: > 100 µM (inactive) | GI50 [43]: > 100 µM (inactive) | GI50 [44]: > 100 µM (inactive) | GI50 [45]: > 100 µM (inactive) | GI50 [46]: > 100 µM (inactive) | GI50 [47]: > 100 µM (inactive) | GI50 [48]: > 100 µM (inactive) | GI50 [49]: > 100 µM (inactive) | GI50 [50]: > 100 µM (inactive) | GI50 [51]: > 100 µM (inactive) | GI50 [52]: > 100 µM (inactive) | GI50 [53]: > 100 µM (inactive)
